Test results published in patent US5654427A, “Indolocarbazole derivatives to treat a pathological condition of the prostate” (Kyowa Hakko Kogyo Co., Ltd., priority 1995, dated 1997).

Molecular target: T1, trkA (Rattus norvegicus, UniProt P35739)
T1 construct: are rat pheochromocytoma cells that bear trkA; host or cells: PC12 rat pheochromocytoma cells
Test: inhibition of NGF-stimulated trk autophosphorylation (tyrosine phosphorylation) in PC12 cells, anti-phosphotyrosine Western blot; as to trk 100 nM (inhibition of phosphorylation): key: +: Inhibited phosphorylation; -: Did not inhibit phosphorylation; as to trk 500 nM (inhibition of phosphorylation): key: +: Inhibited phosphorylation; -: Did not inhibit phosphorylation
Type: cell-based
Settings: for trk 100 nM (inhibition of phosphorylation) / phosphorylation response (FIG. 1, spot): 100 nM compound; for trk 100 nM (inhibition of phosphorylation) / trk 500 nM (inhibition of phosphorylation): NGF 50 ng/ml; for trk 500 nM (inhibition of phosphorylation): 500 nM compound; for phosphorylation response (FIG. 1, spot): NGF, Western blot FIG. 1
Procedure: Candidate compounds for the inhibition of prostate cell proliferation were selected according to their ability to inhibit the tyrosine kinase activity associated with the trks.
PC12 cells (ATCC #CRL1721) are rat pheochromocytoma cells that bear trkA and differentiate into sympathetic neurons when treated with NGF. […] Cells were incubated at 37° C. in a humidified atmosphere of 10% CO2 and 90% air. […] The cells in each culture were disrupted and cell lysates were prepared by standard techniques known to those skilled in the art. Each lysate was incubated with anti-trk antibody whereby immune complexes were formed. […] The immune complexes were collected on Protein A-Sepharose beads, separated by SDS-polyacrylamide gel electrophoresis (SDS-PAGE), and transferred to polyvinylidene difluoride (PVDF) membranes (Millipore Corp., Bedford, Mass.), using techniques well known to those skilled in the art. The membranes were incubated with anti-phosphotyrosine antibody, which binds to the tyrosine phosphorylated trks, but not to the un-phosphorylated form of trks. Proteins bound to anti-phosphotyrosine antibody were visualized with enhanced chemiluminescence (ECL, Amersham), and are shown as dark "spots" in FIG. 1.
Measurement of the autophosphorylation of trk provides a good index of trk tyrosine kinase activity, and thereby of trk stimulation.
Inhibition was indicated by the absence of a spot migrating with the trk marker shown at the left side of the figure. Partial inhibition was indicated by a spot of reduced size.

T1 sequence (P35739 33-799): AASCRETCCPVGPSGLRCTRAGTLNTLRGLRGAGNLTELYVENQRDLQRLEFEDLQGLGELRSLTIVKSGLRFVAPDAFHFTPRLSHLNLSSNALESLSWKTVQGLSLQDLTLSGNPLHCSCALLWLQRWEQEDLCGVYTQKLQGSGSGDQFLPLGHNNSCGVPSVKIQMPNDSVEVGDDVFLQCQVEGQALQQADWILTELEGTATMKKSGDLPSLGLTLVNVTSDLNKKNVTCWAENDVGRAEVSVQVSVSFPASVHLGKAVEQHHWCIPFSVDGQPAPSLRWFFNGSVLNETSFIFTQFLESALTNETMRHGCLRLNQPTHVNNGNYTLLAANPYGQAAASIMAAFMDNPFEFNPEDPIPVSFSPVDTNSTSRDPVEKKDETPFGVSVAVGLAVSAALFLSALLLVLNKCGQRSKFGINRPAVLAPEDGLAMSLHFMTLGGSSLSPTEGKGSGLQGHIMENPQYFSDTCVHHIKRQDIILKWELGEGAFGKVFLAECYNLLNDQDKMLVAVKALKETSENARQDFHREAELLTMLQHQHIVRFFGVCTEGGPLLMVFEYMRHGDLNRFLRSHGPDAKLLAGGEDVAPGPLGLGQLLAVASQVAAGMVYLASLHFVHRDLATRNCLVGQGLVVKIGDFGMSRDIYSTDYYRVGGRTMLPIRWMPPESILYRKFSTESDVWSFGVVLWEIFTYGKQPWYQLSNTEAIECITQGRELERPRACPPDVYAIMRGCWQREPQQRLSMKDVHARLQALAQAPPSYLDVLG

Row | SMILES | trk 100 nM (inhibition of phosphorylation) | trk 500 nM (inhibition of phosphorylation) | phosphorylation response (FIG. 1, spot)
1 | CC12OC(CC1O)n1c3ccccc3c3c4c(c5c6ccccc6n2c5c31)CNC4=O (stereo not shown) [Compound I-3] | + |  | 
2 | CC12OC(CC1(O)C(N)=O)n1c3ccccc3c3c4c(c5c6ccccc6n2c5c31)CNC4=O (stereo not shown) [Compound I-4] | + | + | 
3 | CC(=O)OCC1(O)CC2OC1(C)n1c3ccccc3c3c4c(c5c6ccccc6n2c5c31)C(=O)NC4 (stereo not shown) [Compound I-6] | + |  | 
4 | CC12OC(CC13CNC(=O)O3)n1c3ccccc3c3c4c(c5c6ccccc6n2c5c31)CNC4=O (stereo not shown) [Compound I-7] | + |  | absent (no spot seen)
5 | CCNC(=O)C1(O)CC2OC1(C)n1c3ccccc3c3c4c(c5c6ccccc6n2c5c31)C(=O)NC4 (stereo not shown) [Compound I-9] | + |  | absent (no spot seen)
6 | CCCNC(=O)C1(O)CC2OC1(C)n1c3ccccc3c3c4c(c5c6ccccc6n2c5c31)C(=O)NC4 (stereo not shown) [Compound I-10] | + |  | 
7 | CC12OC(CC1(O)C(=O)N1CCOCC1)n1c3ccccc3c3c4c(c5c6ccccc6n2c5c31)CNC4=O (stereo not shown) [Compound I-11] | + |  | 
8 | CC1(C)OCC2(CC3OC2(C)n2c4ccccc4c4c5c(c6c7ccccc7n3c6c42)C(=O)NC5)O1 (stereo not shown) [Compound I-13] | + | + | 
9 | CC12OC(CC1(O)C=NNC(N)=O)n1c3ccccc3c3c4c(c5c6ccccc6n2c5c31)CNC4=O (stereo not shown) [Compound I-14] | + |  | 
10 | CC12OC(CC1(O)CNC(=O)[C@@H]1CCCN1)n1c3ccccc3c3c4c(c5c6ccccc6n2c5c31)CNC4=O (stereo partly shown) [Compound I-17] | - | + | 
11 | CC12OC(CC1(O)CNC(=O)[C@@H](N)CO)n1c3ccccc3c3c4c(c5c6ccccc6n2c5c31)CNC4=O (stereo partly shown) [Compound I-18] | + |  | 
12 | CC12OC(CC1(O)CN=[N+]=[N-])n1c3ccccc3c3c4c(c5c6ccccc6n2c5c31)CNC4=O (stereo not shown) [Compound I-21] | - | + | 
13 | COC(=O)C1(O)CC2OC1(C)n1c3ccccc3c3c4c(c5c6cc(Br)ccc6n2c5c31)C(=O)NC4 (stereo not shown) [Compound I-23] | - | + | 
14 | CC(=O)NCC1(O)CC2OC1(C)n1c3ccccc3c3c4c(c5c6ccccc6n2c5c31)C(=O)NC4 (stereo not shown) [Compound I-24] | + |  | 
15 | CN(C)C(=O)C1(O)CC2OC1(C)n1c3ccccc3c3c4c(c5c6ccccc6n2c5c31)C(=O)NC4 (stereo not shown) [Compound I-25] | + |  | 
16 | CC12OC(CC1(O)C(=O)NO)n1c3ccccc3c3c4c(c5c6ccccc6n2c5c31)CNC4=O (stereo not shown) [Compound I-26] | + |  | 
17 | COC(=O)C1(O)CC2OC1(C)n1c3ccccc3c3c4c(c5c6cc(NC(=O)Nc7ccccc7)ccc6n2c5c31)C(=O)NC4 (stereo not shown) [Compound I-27] | - | + | 
18 | CC12OC(CC1(O)C=NO)n1c3ccccc3c3c4c(c5c6ccccc6n2c5c31)CNC4=O (stereo not shown) [Compound I-28] | + |  | 
19 | CC12OC(CC1(O)C=NNC(=N)N)n1c3ccccc3c3c4c(c5c6ccccc6n2c5c31)CNC4=O (stereo not shown) [Compound I-29] | - | + | 
20 | CC12OC(CC1(O)C=NNC1=NCCN1)n1c3ccccc3c3c4c(c5c6ccccc6n2c5c31)CNC4=O (stereo not shown) [Compound I-30] | - | + | 

Row | SMILES | trk 100 nM (inhibition of phosphorylation) | trk 500 nM (inhibition of phosphorylation) | phosphorylation response (FIG. 1, spot)
21 | COC(=O)CC1(O)CC2OC1(C)n1c3ccccc3c3c4c(c5c6ccccc6n2c5c31)C(=O)NC4 (stereo not shown) [Compound I-31] | + |  | 
22 | CC12OC(CC1(O)CNC(=O)CN)n1c3ccccc3c3c4c(c5c6ccccc6n2c5c31)CNC4=O (stereo not shown) [Compound I-32] | + |  | 
23 | CC12OC(CC1(O)C(=O)Nc1ccccc1)n1c3ccccc3c3c4c(c5c6ccccc6n2c5c31)CNC4=O (stereo not shown) [Compound I-33] | - | + | 
24 | CCNC(=O)Nc1ccc2c(c1)c1c3c(c4c5ccccc5n5c4c1n2C1CC(O)(C(=O)OC)C5(C)O1)CNC3=O (stereo not shown) [Compound I-34] | - | + | 
25 | CCNC(=O)OCc1ccc2c(c1)c1c3c(c4c5ccccc5n5c4c1n2C1CC(O)(C(=O)OC)C5(C)O1)CNC3=O (stereo not shown) [Compound I-35] | + | + | 
26 | CC12OC(CC1(O)CO)n1c3ccc(Br)cc3c3c4c(c5c6ccccc6n2c5c31)CNC4=O (stereo not shown) [Compound I-36] | + |  | 
27 | COC(=O)Nc1ccc2c(c1)c1c3c(c4c5ccccc5n5c4c1n2C1CC(O)(C(=O)OC)C5(C)O1)CNC3=O (stereo not shown) [Compound I-37] | + |  | 
28 | COC(=O)C1(O)CC2OC1(C)n1c3ccccc3c3c4c(c5c6cc(C)ccc6n2c5c31)C(=O)NC4 (stereo not shown) [Compound I-38] | + |  | 
29 | COC(=O)C1(O)CC2OC1(C)n1c3ccc(Br)cc3c3c4c(c5c6cc(Br)ccc6n2c5c31)C(=O)NC4 (stereo not shown) [Compound I-39] | + |  | somewhat diminished (a smaller spot was seen)
30 | CC12OC(CC1(O)C[S+]([O-])c1ccccn1)n1c3ccccc3c3c4c(c5c6ccccc6n2c5c31)CNC4=O (stereo not shown) [Compound I-40] | + |  | 
31 | CCOCc1ccc2c(c1)c1c3c(c4c5ccccc5n5c4c1n2C1CC(O)(C(=O)OC)C5(C)O1)CNC3=O (stereo not shown) [Compound I-41] | + | + | 
32 | CC12OC(CC1(O)C(=O)NCCO)n1c3ccc(Br)cc3c3c4c(c5c6cc(Br)ccc6n2c5c31)CNC4=O (stereo not shown) [Compound I-43] | - | + | 
33 | COC(=O)C1(O)CC2OC1(C)n1c3ccc(Cl)cc3c3c4c(c5c6cc(Cl)ccc6n2c5c31)C(=O)NC4 (stereo not shown) [Compound I-44] | - | + | 
34 | CC12OC(CC1=O)n1c3ccccc3c3c4c(c5c6ccccc6n2c5c31)CNC4=O (stereo not shown) [Compound I-52] | + |  | 
35 | COC(=O)C1(OC)CC2OC1(C)n1c3ccccc3c3c4c(c5c6ccccc6n2c5c31)C(=O)NC4 (stereo not shown) [Compound I-53] | + |  | 
36 | CNC(=O)C1(O)CC2OC1(C)n1c3ccccc3c3c4c(c5c6ccccc6n2c5c31)C(=O)NC4 (stereo not shown) [Compound I-54] | + |  | 
37 | CC(=O)OC1(C(=O)NCC(C)C)CC2OC1(C)n1c3ccccc3c3c4c(c5c6ccccc6n2c5c31)C(=O)NC4 (stereo not shown) [Compound I-55] | + |  | 
38 | CSCC1(O)CC2OC1(C)n1c3ccccc3c3c4c(c5c6ccccc6n2c5c31)C(=O)NC4 (stereo not shown) [Compound I-56] |  | + | 
39 | CC12OC(CC1(O)CNC(=O)[C@@H](N)CCCCN)n1c3ccccc3c3c4c(c5c6ccccc6n2c5c31)CNC4=O (stereo partly shown) [Compound I-57] | + |  | 
40 | COC(=O)C1(O)CC2OC1(C)n1c3ccccc3c3c4c(c5c6cc(C(Sc7ccccc7)Sc7ccccc7)ccc6n2c5c31)C(=O)NC4 (stereo not shown) [Compound I-58] | - | + | 
